Results: PMC9760430, “A stapled chromogranin A-derived peptide homes in on tumors that express αvβ6 or αvβ8 integrins” (International Journal of Biological Sciences, 2023)
Peptide text beside a SMILES is read from it. * marks the point of attachment. X1 = CC1(C)C(/C=C/C2=C(Oc3ccc(S(=O)(=O)O)cc3)C(=C\C=C3/N(CCCCCC(=O)NCCN4C(=O)CC(*)C4=O)c4ccc(S(=O)(=O)O)cc4C3(C)C)/CCC2)=[N+](CCCCS(=O)(=O)O)c2ccc(S(=O)(=O)[O-])cc21

Biological target: T1, murine αvβ8 (Mus musculus, UniProt P43406+Q0VBD0)
T1 construct: purchased Bio-Techne
T1 sequence (P43406 31-988 limits assumed): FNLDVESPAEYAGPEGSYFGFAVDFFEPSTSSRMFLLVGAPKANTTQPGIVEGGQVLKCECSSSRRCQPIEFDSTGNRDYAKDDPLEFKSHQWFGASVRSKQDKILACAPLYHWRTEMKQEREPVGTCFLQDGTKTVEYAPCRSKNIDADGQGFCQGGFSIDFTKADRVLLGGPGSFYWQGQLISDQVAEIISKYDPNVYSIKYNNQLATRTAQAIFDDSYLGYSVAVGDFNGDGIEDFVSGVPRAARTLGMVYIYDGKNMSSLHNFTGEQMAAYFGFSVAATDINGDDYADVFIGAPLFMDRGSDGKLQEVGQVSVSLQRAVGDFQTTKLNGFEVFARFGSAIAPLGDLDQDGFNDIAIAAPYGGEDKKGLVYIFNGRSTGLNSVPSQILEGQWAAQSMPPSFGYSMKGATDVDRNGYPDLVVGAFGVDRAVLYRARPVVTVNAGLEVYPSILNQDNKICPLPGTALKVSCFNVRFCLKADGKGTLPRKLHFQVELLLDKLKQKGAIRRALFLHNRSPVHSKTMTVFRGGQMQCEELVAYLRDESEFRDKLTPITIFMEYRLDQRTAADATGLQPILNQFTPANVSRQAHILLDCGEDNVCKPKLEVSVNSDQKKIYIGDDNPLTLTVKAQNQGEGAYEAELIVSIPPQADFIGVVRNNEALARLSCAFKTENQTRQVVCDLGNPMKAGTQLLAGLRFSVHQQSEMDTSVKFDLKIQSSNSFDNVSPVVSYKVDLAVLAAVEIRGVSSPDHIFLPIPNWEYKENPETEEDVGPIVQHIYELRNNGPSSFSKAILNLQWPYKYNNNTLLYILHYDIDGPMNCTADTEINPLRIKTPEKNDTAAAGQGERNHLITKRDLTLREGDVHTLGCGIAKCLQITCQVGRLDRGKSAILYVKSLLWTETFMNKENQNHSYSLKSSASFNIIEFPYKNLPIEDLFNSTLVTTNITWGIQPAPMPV
T1 sequence (Q0VBD0 43-682 limits assumed): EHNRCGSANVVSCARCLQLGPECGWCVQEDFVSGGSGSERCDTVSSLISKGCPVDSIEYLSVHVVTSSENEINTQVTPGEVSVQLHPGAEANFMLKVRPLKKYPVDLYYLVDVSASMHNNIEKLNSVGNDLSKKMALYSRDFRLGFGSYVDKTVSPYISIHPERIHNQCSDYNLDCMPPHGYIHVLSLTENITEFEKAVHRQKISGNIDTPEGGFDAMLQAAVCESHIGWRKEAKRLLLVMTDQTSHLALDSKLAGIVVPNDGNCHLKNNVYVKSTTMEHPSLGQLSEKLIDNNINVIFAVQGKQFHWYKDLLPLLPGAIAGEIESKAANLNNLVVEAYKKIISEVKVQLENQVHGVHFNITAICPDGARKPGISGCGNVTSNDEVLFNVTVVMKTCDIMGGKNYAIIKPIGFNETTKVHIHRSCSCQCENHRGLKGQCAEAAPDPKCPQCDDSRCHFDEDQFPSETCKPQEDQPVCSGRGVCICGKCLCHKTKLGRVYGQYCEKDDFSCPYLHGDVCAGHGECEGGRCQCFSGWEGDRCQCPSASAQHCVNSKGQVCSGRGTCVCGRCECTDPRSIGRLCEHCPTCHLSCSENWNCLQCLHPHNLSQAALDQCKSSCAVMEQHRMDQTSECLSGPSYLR
Assay: direct integrin binding assay of peptide-IRDye conjugates, murine αvβ8-coated plates
Conditions: plates coated with recombinant murine αvβ8; conjugate 0.01-100 nM, 1 h; bound NIR fluorescence; mean ± SE, n = 3 experiments
Procedure: The affinity of peptide-IRDye conjugates for αvβ6 and αvβ8 integrins was determined by a direct binding assay using microtiter plates coated with αvβ6 or αvβ8 (Bio-Techne). After 1 h of incubation, the plates were washed; bound fluorescence was quantified by scanning the plates with an Odyssey CLx near-infrared fluorescence imaging system (LI-COR).
A control conjugate with a cysteine in place of the peptide was also prepared in parallel. […]
The simplified molecular-input line-entry system (SMILES) of 5a-, 2a-, Cys- and 5a-Scr- […]
The concentration of each conjugate was quantified by spectrophotometric analysis at 774 nm (molar absorption coefficient, 240,000 M-1, cm-1) (Figure S3B). The final yield of 5a-IRDye […]
Binding of peptide-IRDye conjugates to avb6 and avb8 integrin […]
conjugates were added to the microtiterplates and incubated at room temperature for 1 h (see Experimental Section). After washing, bound fluorescence was measured using an Odyssey CLx (LI-COR) scanner. Representative images of the scanned plates and quantification of binding are shown. […]

| SMILES | EC50 [nM] |
| --- | --- |
| CC1(C)C(/C=C/C2=C(Oc3ccc(S(=O)(=O)O)cc3)C(=C\C=C3/N(CCCCCC(=O)NCCN4C(=O)CC(SC[C@H](N)C(=O)O)C4=O)c4ccc(S(=O)(=O)O)cc4C3(C)C)/CCC2)=[N+](CCCCS(=O)(=O)O)c2ccc(S(=O)(=O)[O-])cc21 (some centres unmarked) [Cys-IRDye] | > 100 |
| CC[C@H](C)[C@H](NC(=O)[C@H](CCCNC(=N)N)NC(=O)[C@H](CCC(=O)O)NC(=O)[C@H](CCC(=O)O)NC(=O)CNC(=O)[C@H](CCCNC(=N)N)NC(=O)[C@H](CC(C)C)NC(=O)[C@@H](NC(=O)[C@H](CCC(=O)O)NC(=O)[C@H](Cc1ccccc1)NC(=O)[C@@H](N)CSC1CC(=O)N(CCNC(=O)CCCCCN2/C(=C\C=C3\CCCC(/C=C/C4=[N+](CCCCS(=O)(=O)O)c5ccc(S(=O)(=O)[O-])cc5C4(C)C)=C3Oc3ccc(S(=O)(=O)O)cc3)C(C)(C)c3cc(S(=O)(=O)O)ccc32)C1=O)[C@@H](C)O)C(=O)N[C@@H](CC(C)C)C(=O)N[C@@H](CO)C(=O)N[C@H](C(=O)N[C@@H](CC(C)C)C(=O)N[C@@H](CCCNC(=N)N)C(=O)N[C@@H](Cc1c[nH]cn1)C(=O)N[C@@H](CCC(N)=O)C(=O)N[C@@H](CC(N)=O)C(=O)N[C@@H](CC(C)C)C(=O)N[C@@H](CC(C)C)C(=O)N[C@@H](CCCCN)C(=O)N[C@@H](CCC(=O)O)C(=O)N[C@@H](CC(C)C)C(=O)N[C@@H](CCC(N)=O)C(=O)N[C@@H](CC(=O)O)C(N)=O)[C@@H](C)CC (some centres unmarked) [2a-IRDye] (H-C(X1)FETLRGEERILSILRHQNLLKELQD-NH2) | > 100 |
